Reference: EP0604354B1, “Antidepressant and antiparkinsonian compounds” (N[…]/S, priority 1992, dated 1994)

Assays:
dopamine release = assay: dopamine releasing properties (no method given)
[1] = molecular target: T1, reuptake of dopamine in synaptosomes of rat forebrain (Rattus norvegicus, UniProt P23977); assay: inhibition of reuptake of 3H-dopamine in synaptosomes of rat forebrain; type: biochemical
T1 construct: Fresh whole forebrain (at 0-4°C) from male Wistar rats (150-200 g) is homogenized; from tissue; host or cells: male Wistar rat whole forebrain, crude synaptosomal supernatant
Protocol: Fresh whole forebrain (at 0-4°C) from male Wistar rats (150-200 g) is homogenized in a glass homogenizer with a teflon pestle in 20 x volumes 0.32M sucrose. The homogenate is centrifuged at 1000 x g (∼ 2900 rpm) for 10 min. The pellet is discarded and the supernatant is used for uptake assays.
A Krebs Buffer (119 mM NaCI, 24 mM NaHCO3, 2.1 mM KCI, 1.2 mM KH2PO4, 1.8 mM CaCl2, 2 mM MgSO4, 7H2O, 12 mM glucose) is equilibrated with an atmosphere of 96% O2: 4% CO2 for at least 60 min at 37°C. To 5 ml Krebs-buffer 100 µl of the radioactivity is added (3H-dopamine 1 x 10^-9M final concentration) and 100 µl test substance solution and 200 µl of tissue suspension. The samples are thoroughly mixed and incubated 10 min at 37°C followed by 2 min at 0°C. After incubation the samples are poured directly onto Whatman GF/C glass fibre filters under suction and immediately washed with 2 x 5 ml ice-cold 0.9% saline (NaCI) buffer. To the filter is added 3 ml of scintillation fluid, and the amount of radioactivity on the filters is determined by conventional liquid scintillation counting.

[2] = tested on: haloperidol-induced catalepsy; assay: catalepsy test for antiparkinsonian effects (antagonism of haloperidol-induced catalepsy); type: in vivo; conditions: rat, given perorally 1 h before haloperidol 0.25 mg/kg s.c.; read-out: Minimum effective dose (peroral administration)
Source text: The day before testing, the rats weighing 200-250 g are housed 2 and 2 together in standard macrolon cages. […] The testing for the immobile catalepsy syndrome includes 4 tests performed in the following consecutive order: • 1) a vertical wire netting (40x40 cm high).The meshes (openings) of the nettings are approximately 1x2cm. • 2) a horizontal bar 9 cm above the floor • 3) a 9 cm high block (bar) • 4) a 3 cm high block (cork)
The rats were scored for the immobile cataleptic syndrome every 15 min in all 4 tests starting 15 min after the haloperidol injection. The intensity of catalepsy was tested during 10 sec in all tests and evaluated according to a criteria of 10 sec of total immobility for a score of 2.
The rat was placed in the middle of the vertical wire netting, then on the horizontal bar in an extended position with support by both the forelegs on the bar. The rats were then tested, whether or not they were willing to sit with the left or right forelegs placed first on the 9 and then on the 3 cm block for a duration of 10 sec. The maximum score for all 4 tests is thus a total of 8.

[3] = tested on: rearing and locomotor activities; assay: behavioural excitatory locomotor and rearing responses (gross behaviour rating); type: in vivo; conditions: rat, 50 mg/kg i.p., maximum peak effect, observed 5-6 hrs
Protocol: Male SPF wistar rats weighing 200-250g were used for the gross behavioural studies. All rats were transferred the day before the experiments to individual cages made of wire netting (floor area 21 x 27 cm, height 16 cm) at a room temperature of 21-23° C. […] The behavioural elements here classified as rearing (i.e. standing up on the hindlegs) and locomotor activities (i.e. forward running activities) were registered, and the maximum peak effects were classified according to the following rating scale: • 0 = non-existent or very infrequent • + = weak and infrequent • ++ = moderate in intensity and frequency • +++ = very strong, continuous and intense
The degree of locomotor activity was also tested and measured quantitatively in photocell activity cages. For the measurement of this locomotor activity 100 g female rats are used.

[4] = tested on: abnormal stereotyped behaviour; assay: abnormal stereotyped behaviour (high intensity stereotypy rating); type: in vivo; conditions: rat, 50 mg/kg i.p.
Source text: Backward locomotion may occasionally be observed.

T1 sequence (P23977 whole entry): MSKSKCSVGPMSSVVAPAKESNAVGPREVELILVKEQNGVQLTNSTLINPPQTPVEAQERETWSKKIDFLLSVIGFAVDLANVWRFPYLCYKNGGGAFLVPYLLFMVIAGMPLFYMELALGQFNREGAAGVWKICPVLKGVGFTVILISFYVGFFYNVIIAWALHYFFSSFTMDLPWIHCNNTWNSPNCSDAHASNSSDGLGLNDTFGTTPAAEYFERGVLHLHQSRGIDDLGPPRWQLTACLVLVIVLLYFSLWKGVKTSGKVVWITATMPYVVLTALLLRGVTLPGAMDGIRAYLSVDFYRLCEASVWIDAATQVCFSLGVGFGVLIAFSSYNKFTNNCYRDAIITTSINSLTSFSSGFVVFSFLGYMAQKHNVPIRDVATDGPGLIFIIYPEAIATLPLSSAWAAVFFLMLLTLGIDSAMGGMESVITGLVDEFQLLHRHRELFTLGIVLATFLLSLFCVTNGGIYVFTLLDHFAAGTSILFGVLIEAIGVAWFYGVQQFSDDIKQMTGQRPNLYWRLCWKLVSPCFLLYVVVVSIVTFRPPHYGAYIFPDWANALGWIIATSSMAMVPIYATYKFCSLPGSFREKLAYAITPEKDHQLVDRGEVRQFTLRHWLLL

SMILES | dopamine releasing properties (dopamine release) | IC50 [1] [nM] | minimal effective dose [2] [mg/kg] | Activity (excitatory locomotor and rearing responses) [3] | Activity (abnormal stereotyped behaviour, high intensity stereotypy) [4]
COC(=O)[C@@H]1[C@@H](c2ccc(F)cc2)C[C@@H]2CC[C@H]1N2C [trans isomer of Win 35,428] | essentially free of dopamine releasing properties |  |  |  | 
CN1[C@H]2CC[C@@H]1[C@H](COc1ccc(Cl)cc1)[C@@H](c1ccc(F)cc1)C2.Cl [(1R,2R,3S)-2-(4-Chlorophenoxy-methyl)-3-(4-fluorophenyl)tropane, hydrochloride] |  | 390 | < 1 | 0 | 0
